Experiment [1] has as its target T1, purified recombinant human GAC (GLS1) (Homo sapiens, UniProt O94925).
T1 sequence (O94925 55-598 isoform O94925-3 limits assumed): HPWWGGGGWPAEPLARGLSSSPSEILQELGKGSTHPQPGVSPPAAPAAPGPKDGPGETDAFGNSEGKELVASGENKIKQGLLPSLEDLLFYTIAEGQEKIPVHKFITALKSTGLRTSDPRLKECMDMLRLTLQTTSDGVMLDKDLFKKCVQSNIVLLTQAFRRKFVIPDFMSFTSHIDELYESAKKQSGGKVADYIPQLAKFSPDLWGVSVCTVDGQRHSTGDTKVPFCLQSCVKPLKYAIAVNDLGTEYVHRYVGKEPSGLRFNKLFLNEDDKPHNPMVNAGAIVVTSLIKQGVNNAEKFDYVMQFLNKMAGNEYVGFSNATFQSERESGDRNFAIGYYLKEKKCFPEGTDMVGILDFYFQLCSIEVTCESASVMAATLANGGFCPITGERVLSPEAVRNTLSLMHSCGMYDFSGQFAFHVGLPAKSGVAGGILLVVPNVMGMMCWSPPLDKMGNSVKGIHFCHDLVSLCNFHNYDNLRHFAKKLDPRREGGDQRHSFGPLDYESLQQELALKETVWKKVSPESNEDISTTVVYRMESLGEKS
The experiment can be described thus: GLS1 Enzymatic Activity Assay (dual-coupled enzymatic assay). It counts as biochemical. How it is done:
GLS1 Enzymatic Activity Assay
The inhibition of purified recombinant human GAC by varying concentrations of inhibitors is assessed via a dual-coupled enzymatic assay. The glutamate produced by the glutaminase reaction is used by glutamate oxidase to produce α-ketoglutarate, ammonia, and hydrogen peroxide, with this hydrogen peroxide subsequently being used by horseradish peroxidase to produce resorufin in the presence of Amplex UltraRed. The assay buffer consisted of 50 mM Hepes (pH 7.4), 0.25 mM EDTA and 0.1 mM Triton X-100. GAC was incubated with potassium phosphate (10 minutes at room temperature) prior to incubation with inhibitor (10 minutes at room temperature). The final reaction conditions were as follows: 2 nM GAC, 50 mM potassium phosphate, 100 mU/mL glutamate oxidase (Sigma), 1 mM glutamine (Sigma), 100 mU/mL horseradish peroxidase (Sigma), 75 μM Amplex UltraRed (Life Technologies), and 1% (v/v) DMSO. The production of resorufin was monitored on a Perkin Elmer Envision plate reader (excitation 530 nm, emission 590 nm) either in a kinetics or endpoint mode (at 20 minutes). IC50 values were calculated using a four-parameter logistic curve fit.

The test system of another experiment is A549 cells. The experiment can be described thus: Proliferation Assay (A549 cell viability, Cell Titer Fluor). The class given is cell-based. To be noted: Homo sapiens, 72 hours. How it is done:
A549 cells were routinely maintained in RPMI 1640 media (Gibco catalog number 11875-093) supplemented with 10% dialyzed fetal bovine serum using a humidified incubator (37° C., 5% CO2 and ambient O2). In preparation for the viability assay, cells were inoculated into 384-well black CulturPlates (Perkin Elmer) at a density of 1000 cells/well in a volume of 40 uL. Following a 24-hour incubation at 37° C., 5% CO2 and ambient O2, cells were treated with compound (10 uL) in a final DMSO concentration of 0.5% (v/v). The microplates were then incubated for 72 hours (37° C., 5% CO2 and ambient O2). Cell Titer Fluor (Promega) was subsequently added (10 uL of 6× reagent) and mixed for 15 minutes at room temperature. The plates were then incubated for 30 minutes (37° C., 5% CO2 and ambient O2) and fluorescence was subsequently read on the Perkin Elmer Envision plate reader. EC50 values were calculated using a four-parameter logistic curve fit.

SMILES strings stand for the structures.

What is called IC50 is the concentration that gives 50% inhibition. The EC50 is the concentration giving half of the maximal effect.

On to `Nc1nnc(CCCCc2cc3cc[nH]c3nn2)s1` [Example 1, 5-(4-(7H-pyrrolo[2,3-c]pyridazin-3-yl)butyl)-1,3,4-thiadiazol-2-amine], for which the concentration for half-maximal inhibition (IC50) in experiment [1] fell in the range of 0.5 to 5 µM.
With `O=C(Cc1ccccn1)Nc1nnc(CCCCc2cc3cc[nH]c3nn2)s1` [Example 2, N-(5-(4-(7H-pyrrolo[2,3-c]pyridazin-3-yl)butyl)-1,3,4-thiadiazol-2-yl)-2-(pyridin-2-yl)acetamide], the IC50 in experiment [1] lay within 0.5 to 5 µM. The same compound yielded a 50% effective concentration (EC50) with A549 cells of 0.5 to 5 µM.
Turning to `O=C(Cc1ccccc1)Nc1nnc(CCCCc2cc3cc(Cc4ccccc4)[nH]c3nn2)s1` [Example 4, N-(5-(4-(6-benzyl-7H-pyrrolo[2,3-c]pyridazin-3-yl)butyl)-1,3,4-thiadiazol-2-yl)-2-phenylacetamide], the IC50 in experiment [1] was under 0.1 µM. In addition, the concentration for a half-maximal effect (EC50) with A549 cells was in the range of 0.1 to 0.5 µM.
The corresponding values for `O=C(Nc1nnc(CCCCc2cc3cc(Cc4ccccc4)[nH]c3nn2)s1)[C@@H](O)c1ccccc1` [Example 5, (S)—N-(5-(4-(6-benzyl-7H-pyrrolo[2,3-c]pyridazin-3-yl)butyl)-1,3,4-thiadiazol-2-yl)-2-hydroxy-2-phenylacetamide] are under 0.1 µM and 0.1 to 0.5 µM.
Regarding `NCc1cccc(CC(=O)Nc2nnc(CCCCc3cc4cc(Cc5ccccc5)[nH]c4nn3)s2)c1` [Example 6, 2-(3-(aminomethyl)phenyl)-N-(5-(4-(6-benzyl-7H-pyrrolo[2,3-c]pyridazin-3-yl)butyl)-1,3,4-thiadiazol-2-yl)acetamide], the IC50 in experiment [1] was under 0.1 µM. The compound also had a concentration giving a half-maximal response (EC50) in the experiment with A549 cells of 0.5 to 5 µM.
In the case of `O=C(Cc1ccccc1)Nc1nnc(CCCCCc2cc3cc(Cc4ccccc4)[nH]c3nn2)s1` [Example 7, N-(5-(5-(6-benzyl-7H-pyrrolo[2,3-c]pyridazin-3-yl)pentyl)-1,3,4-thiadiazol-2-yl)-2-phenylacetamide], the half-maximal inhibitory concentration (IC50) in experiment [1] fell in the range of 0.5 to 5 µM.
As to `O=C(Nc1nnc(CCCCc2cc3cc(C4CC4)[nH]c3nn2)s1)[C@@H](O)c1ccccc1` [Example 8, (S)—N-(5-(4-(6-Cyclopropyl-7H-pyrrolo[2,3-c]pyridazin-3-yl)butyl)-1,3,4-thiadiazol-2-yl)-2-hydroxy-2-phenylacetamide], the concentration for half-maximal inhibition (IC50) in experiment [1] was under 0.1 µM. The same compound had an EC50 with A549 cells of 0.5 to 5 µM.
The corresponding values for `O=C(Cc1ccccc1)Nc1ccn(CCCCc2cc3cc(Cc4ccccc4)[nH]c3nn2)c(=O)c1` [Example 9, N-(1-(4-(6-Benzyl-7H-pyrrolo[2,3-c]pyridazin-3-yl)butyl)-2-oxo-1,2-dihydropyridin-4-yl)-2-phenylacetamide] are under 0.1 µM and 0.5 to 5 µM.
`CC(C)CNC(=O)c1nnc(CCCCc2cc3cc(Cc4ccccc4)[nH]c3nn2)s1` [Example 10, 5-(4-(6-Benzyl-7H-pyrrolo[2,3-c]pyridazin-3-yl)butyl)-N-isobutyl-1,3,4-thiadiazole-2-carboxamide]: in experiment [1], the 50% inhibitory concentration (IC50) lay in the range of 0.1 to 0.5 µM. This compound also came in with a 50% effective concentration (EC50) in the experiment on A549 cells of 0.5 to 5 µM.
On to `O=C(NCc1ccccc1)c1cn(CCCCc2cc3cc[nH]c3nn2)nn1` [Example 11, 1-(4-(7H-pyrrolo[2,3-c]pyridazin-3-yl)butyl)-N-benzyl-1H-1,2,3-triazole-4-carboxamide], for which the IC50 in experiment [1] lay within 0.5 to 5 µM.
Take `CC(C)c1cc2cc(CCCCn3cc(C(=O)NCc4ccccn4)nn3)nnc2[nH]1` [Example 12, 1-(4-(6-isopropyl-7H-pyrrolo[2,3-c]pyridazin-3-yl)butyl)-N-(pyridin-2-ylmethyl)-1H-1,2,3-triazole-4-carboxamide]: the IC50 in experiment [1] is 0.1 to 0.5 µM. In addition, the 50% effective concentration (EC50) in the experiment with A549 cells lay in the range of 0.5 to 5 µM.
Regarding `CC(C)Cc1cc2cc(CCCCn3cc(C(=O)NCc4ccccc4)nn3)nnc2[nH]1` [Example 13, N-benzyl-1-(4-(6-isobutyl-7H-pyrrolo[2,3-c]pyridazin-3-yl)butyl)-1H-1,2,3-triazole-4-carboxamide], the concentration for half-maximal inhibition (IC50) in experiment [1] lay in the range of 0.1 to 0.5 µM. The compound also returned an EC50 in the experiment with A549 cells of 0.5 to 5 µM.
The corresponding values for `O=C(NCc1ccccc1)c1cn(CCCCc2cc3cc(Cc4ccccc4)[nH]c3nn2)nn1` [Example 14, N-benzyl-1-(4-(6-benzyl-7H-pyrrolo[2,3-c]pyridazin-3-yl)butyl)-1H-1,2,3-triazole-4-carboxamide] are under 0.1 µM and 0.5 to 5 µM.
For `O=C(NCc1ccccc1)c1cn(CCCCc2cc3c(I)c[nH]c3nn2)nn1` [Example 15, N-benzyl-1-(4-(5-iodo-7H-pyrrolo[2,3-c]pyridazin-3-yl)butyl)-1H-1,2,3-triazole-4-carboxamide], in that order: 0.1 to 0.5 µM and 0.5 to 5 µM.
For the compound `O=C(NCc1ccccn1)c1cn(CCCCc2cc3cc(C4CC4)[nH]c3nn2)nn1` [Example 16, 1-(4-(6-cyclopropyl-7H-pyrrolo[2,3-c]pyridazin-3-yl)butyl)-N-(pyridin-2-ylmethyl)-1H-1,2,3-triazole-4-carboxamide], the IC50 in experiment [1] lay within 0.1 to 0.5 µM. Also, the EC50 in the experiment with A549 cells was 0.1 to 0.5 µM.
For `Nc1nnc(CCCCc2cnc3[nH]c(Cc4ccccc4)nc3c2)s1` [Example 22, 5-(4-(2-benzyl-3H-imidazo[4,5-b]pyridin-6-yl)butyl)-1,3,4-thiadiazol-2-amine], in experiment [1], the IC50 lay in the range of 0.5 to 5 µM.
On to `O=C(Cc1ccccc1)Nc1nnc(CCCCc2cnc3[nH]c(Cc4ccccc4)nc3c2)s1` [Example 23, N-(5-(4-(2-benzyl-3H-imidazo[4,5-b]pyridin-6-yl)butyl)-1,3,4-thiadiazol-2-yl)-2-phenylacetamide], for which the IC50 in experiment [1] is 0.5 to 5 µM.
As to `O=C(NCc1ccccn1)c1cn(CCCCc2cc3cc[nH]c3nn2)nn1` [Example 25, 1-(4-(7H-pyrrolo[2,3-c]pyridazin-3-yl)butyl)-N-(pyridin-2-ylmethyl)-1H-1,2,3-triazole-4-carboxamide], in experiment [1], the IC50 was 0.5 to 5 µM.
As for `Nc1ccn(CCCCc2cc3cc(C4CC4)[nH]c3nn2)c(=O)c1` [Example 31, 4-amino-1-(4-{6-cyclopropyl-7H-pyrrolo[2,3-c]pyridazin-3-yl}butyl)-1,2-dihydropyridin-2-one], in experiment [1], the half-maximal inhibitory concentration (IC50) is 0.5 to 5 µM.
As for `O=C(Cc1cccnc1)Nc1nnc(CCCCc2cc3cc(Cc4ccccc4)[nH]c3nn2)s1` [Example 57, N-[5-(4-{6-benzyl-7H-pyrrolo[2,3-c]pyridazin-3-yl}butyl)-1,3,4-thiadiazol-2-yl]-2-(pyridin-3-yl)acetamide], the IC50 in experiment [1] is under 0.1 µM.
Consider `CC(C)(O)CNC(=O)c1nnc(CCCCc2cc3cc(Cc4ccccc4)[nH]c3nn2)s1` [Example 71, 5-(4-{6-benzyl-7H-pyrrolo[2,3-c]pyridazin-3-yl}butyl)-N-(2-hydroxy-2-methylpropyl)-1,3,4-thiadiazole-2-carboxamide], for which, in experiment [1], the IC50 was in the range of 0.5 to 5 µM.
Same read-out and setting: the figure for `O=C(NCc1ccccn1)c1cn(CCCCc2cc3c4c([nH]c3nn2)CCC4)nn1` [Example 142, N-(pyridin-2-ylmethyl)-1-(4-(5,6,7,8-tetrahydrocyclopenta[4,5]pyrrolo[2,3-c]pyridazin-3-yl)butyl)-1H-1,2,3-triazole-4-carboxamide] is 0.5 to 5 µM; for `O=C(NCc1cccc(OC(F)(F)F)c1)c1cn(CCCCc2cc3c(C4=CCNCC4)c(C4CC4)[nH]c3nn2)nn1` [Example 199, 1-{4-[6-cyclopropyl-5-(1,2,3,6-tetrahydropyridin-4-yl)-7H-pyrrolo[2,3-c]pyridazin-3-yl]butyl}-N-{[3-(trifluoromethoxy)phenyl]methyl}-1H-1,2,3-triazole-4-carboxamide] it is 0.1 to 0.5 µM.

For the origin of these results see US20160002248A1, “GLS1 INHIBITORS FOR TREATING DISEASE” (Board of Regents, The University of Texas System, priority 2014, published 2016).
